CCCCC1=NC2(CCCC2)C(=O)N1Cc1ccc(-c2ccccc2-c2nn[nH]n2)cc1
Conditions | solubility (mole fraction)
in 1,4-dioxane, 287.9 K | 0.000466
in 1,4-dioxane, 293.45 K | 0.000634
in 1,4-dioxane, 298 K | 0.000832
in 1,4-dioxane, 303.65 K | 0.00112
in 1,4-dioxane, 308.2 K | 0.00142
in 1,4-dioxane, 312.9 K | 0.00183
in 1,4-dioxane, 318.05 K | 0.00227
in 1,4-dioxane, 322.85 K | 0.00278
in THF, 278.3 K | 0.00127
in THF, 282.85 K | 0.00152
in THF, 288.1 K | 0.00184
in THF, 292.95 K | 0.00229
in THF, 297.7 K | 0.00277
in THF, 303.15 K | 0.00332
in THF, 308.05 K | 0.00396
in THF, 312.7 K | 0.00479
in THF, 318.35 K | 0.00581
in THF, 322.75 K | 0.00687
in acetone, 278.35 K | 0.000284
in acetone, 283.15 K | 0.000364
in acetone, 288.35 K | 0.000444
in acetone, 293.6 K | 0.00053
in acetone, 298.25 K | 0.000678
in acetone, 302.95 K | 0.000861
in acetone, 308.4 K | 0.00105
in acetone, 312.75 K | 0.00129
in acetone, 318.55 K | 0.00158
in acetone, 323.1 K | 0.00192
in chloroform, 277.7 K | 0.0012
in chloroform, 283.3 K | 0.00131
in chloroform, 287.7 K | 0.00146
in chloroform, 292.7 K | 0.00161
in chloroform, 297.75 K | 0.00179
in chloroform, 302.85 K | 0.00201
in chloroform, 307.8 K | 0.00225
in chloroform, 313.4 K | 0.00259
in chloroform, 317.8 K | 0.00294
in chloroform, 323 K | 0.00335
in ethanol, 278.6 K | 0.000333
in ethanol, 283.55 K | 0.000489
in ethanol, 288.5 K | 0.000627
in ethanol, 292.7 K | 0.000809
in ethanol, 297.8 K | 0.00106
in ethanol, 303.05 K | 0.00122
in ethanol, 308.5 K | 0.00159
in ethanol, 313.3 K | 0.0021
in ethanol, 318.5 K | 0.00263
in ethanol, 323.6 K | 0.00341
